Source: PMC3684770 (Free Radical Biology & Medicine, 2013)
Where two headings read alike, the source gives them in different places.

Legend:
Nrf2-ARE pathway = experiment: ARE reporter assay in CHO 4xARE-TK-GFP cells (Spectrum library hits); settings: for Toxic dose: lowest dose at which a reduction in GFP fluorescence was observed; for maximal fold induction: CHO, read-out: Fold GFP induction; for Cmax: read-out: Cmax (concentration inducing a maximal response), CHO-4xARE-TK, 24 hours, serum free medium
Protocol: The Z′ score was calculated as follows Z′=1−(3SD^++3SD^−)/(Ave^+–Ave^−) where SD^+ = standard deviation of positive control wells; SD^− = standard deviation of negative control wells; Ave^+ = average fluorescence reading of positive control wells; Ave^− = average fluorescence reading of negative control wells.
Media was removed by hand and replaced (1 compound/well) with the Spectrum library diluted to 10 μM in 0.1% DMSO using a Q-bot liquid handling system (Genetix, New Milton, UK). […] The TK-GFP CHO ARE cell line was screened twice in a single point assay and the control TK-GFP CHO cell line was screened once to eliminate false positives.
The compounds were applied in triplicate to confluent cells in 96 well plates in serum free medium for 24 hours and the induction of GFP measured in a fluorescence plate reader.
In order to screen the Spectrum collection of 2000 molecules the reporter assay was optimised in […]. To assess the suitability of the assay for library screening, a Z’ score calculation was performed by treating alternate wells with vehicle (0.1% DMSO) and 10 µM Ebselen as a positive control (see calculation in Methods). […] The library was subsequently screened at a single point concentration of 10µM for every compound. Drug library dilutions and plating were performed with a Q-BOT liquid handling system and both the 4xARE-TK-GFP reporter cell line and TK-GFP control cell line were tested for their response to the compounds. Hits were identified as having data points more than three standard deviations above the background level, which was the average value of 24 wells treated with vehicle (0.1% DMSO) only. Hit compounds were checked to see if they generated a response in the control cell line, for example by non-specific activation of transcription or autofluorescence. […] The library screen was repeated once in the 4xARE –TK-CHO cell line and compounds classed as hits in both screens were taken forward for further assessment.

C6 astrocyte cell line = experiment: C6 oxidative stress assay (serum withdrawal, DCF); settings: for C6 oxidative stress assay Toxic dose: minimum dose at which toxicity was observed; for Emax: 24 h, read-out: C6 oxidative stress assay Max reduction; for IC50: read-out: C6 oxidative stress assay IC50
Protocol: (§1) Media were then replaced with serum-free, phenol-free media for 5 h.

[1] = system: 1321N1 astrocyte cell line; experiment: 1321N1 oxidative stress assay (serum withdrawal, DCF); settings: for 1321N1 oxidative stress assay Toxic dose: minimum dose at which toxicity was observed; for Emax: 1321-N1, 24 h, read-out: 1321N1 oxidative stress assay Max reduction
Protocol: as §1

NSC34 cells = experiment: NSC34 oxidative stress assay (serum withdrawal, DCF); settings: for NSC34 oxidative stress assay Toxic dose: minimum dose at which toxicity was observed; for Emax: Mus musculus, NSC-34, 24 h, read-out: NSC34 oxidative stress assay Max reduction
Protocol: as §1

[2] = average fold over baseline at the maximal response, CHO cells, 24 h
[3] = maximum % inhibition of DCF signal
[4] = read-out: 1321N1 oxidative stress assay IC50, 24-h preconditioning, 6-h serum withdrawal, DCF fluorescence
[5] = maximum % inhibition of DCF signal, negative = prooxidant
[6] = Homo sapiens, 1321-N1, read-out: 1321N1 oxidative stress assay IC50
[7] = CHO ARE reporter, 7-point concentration response
[8] = 24-h preconditioning, 6-h serum withdrawal, DCF fluorescence

| Molecule | Fold GFP induction (Nrf2-ARE pathway; [2]) [fold] | Toxic dose (Nrf2-ARE pathway) | C6 oxidative stress assay Toxic dose (C6 astrocyte cell line) | 1321N1 oxidative stress assay Toxic dose [1] | NSC34 oxidative stress assay Toxic dose (NSC34 cells) | EC50 (Nrf2-ARE pathway; Cricetulus griseus) [µM] | Emax (C6 astrocyte cell line; Rattus norvegicus, Astrocyte) [%] | IC50 (C6 astrocyte cell line; Rattus norvegicus, Astrocyte) [µM] | Emax ([1]; Homo sapiens) [%] | IC50 [1, 6] [µM] | Emax (NSC34 cells) [%] | also measured |
| --- | --- | --- | --- | --- | --- | --- | --- | --- | --- | --- | --- | --- |
| CC(=O)O[C@H]1CCC2(C)C3=C(CCC2C1(C)C)[C@@]1(C)CC[C@@H](C(C)CCC=C(C)C)[C@]1(C)CC3 (stereo partly shown) [Euphol acetate] | 2.20 | 100 µM | none | none | none |  |  |  |  |  |  | C6 oxidative stress assay Max reduction (C6 astrocyte cell line; [3]): 0%; 1321N1 oxidative stress assay Max reduction [1, 3]: 38%; IC50 [1, 4]: 18 µM; NSC34 oxidative stress assay Max reduction (NSC34 cells; [5]): -43% |
| Cc1[nH]c2ccccc2c1CN(C)C [2-Methyl gramine] |  | 100 µM | none | none | 3 µM | 3 | 36 | 32 | 36 | 11 | -30 | maximal fold induction (Nrf2-ARE pathway; Cricetulus griseus, 24 h): 2.27 |
| COC(=O)[C@H](O)[C@H]1C(C)(C)[C@H](OC(C)=O)[C@@H]2CC3=C4CC(=O)O[C@@H](c5ccoc5)[C@]4(C)CC[C@@H]3[C@@]1(C)C2=O [Swietenolide 3 acetate] |  | 100 µM | none | none | 0.3 µM | 3.5 | 50 | 4.22 | 60 |  | 0 | maximal fold induction (Nrf2-ARE pathway; Cricetulus griseus, 24 h): 2.82 |
| CC(C)N(C(=O)CCl)c1ccccc1 [Propachlor] | 3.25 | 100 µM | 10 µM | 10 µM | 10 µM | 1.49 | 74 | 0.645 | 50 | 0.829 | 0 |  |
| O=C(/C=C/c1ccc(O)cc1)c1ccc(O)cc1O [Isoliquiritigenin] |  | 30 µM | none | none | 1 µM | 2.52 | 46 | 28 | 50 | 1.78 | -6 |  |
| epigallocatechin-3-gallate [EGCG, reference compound] |  |  |  |  |  |  |  |  |  |  |  | Cmax (Nrf2-ARE pathway): 100 µM |
| S=C=NCc1ccccc1 [Benzyl isothiocyanate] |  | None | none | none | none | 24 | 27 | 3.47 | 8 |  | -28 |  |
| O=C(CC[N+](=O)[O-])OC[C@H]1O[C@@H](O)[C@H](OC(=O)CC[N+](=O)[O-])[C@@H](OC(=O)CC[N+](=O)[O-])[C@@H]1OC(=O)CC[N+](=O)[O-] [Endecaphyllin X] | 2.15 | None | none | none | 10 µM |  |  |  |  |  |  | EC50 (Nrf2-ARE pathway; [7]): 18.8 µM; C6 oxidative stress assay Max reduction (C6 astrocyte cell line; [3]): 40%; IC50 (C6 astrocyte cell line; [8]): 3.15 µM; 1321N1 oxidative stress assay Max reduction [1, 3]: 56%; NSC34 oxidative stress assay Max reduction (NSC34 cells; [5]): 0% |
| CCCCCc1c2c(cc(O)c1C(=O)O)OC(=O)c1c(cc(OC)cc1C(=O)CCCC)O2 [Lobaric acid] |  | 100 µM | none | none | none | 17 | 9 | 3.14 | 0 |  | -26 |  |
| C=C1C(=O)O[C@H]2[C@H]1CC/C(C)=C/CC[C@@]1(C)O[C@@H]21 [Parthenolide] |  | 100 µM | None | None | 1 µM | > 100 | 81 | 3.11 | 47 | 28.4 | 0 | maximal fold induction (Nrf2-ARE pathway; Cricetulus griseus, 24 h): 2.77 |
| OC[C@H]1O[C@@H](n2cnc3c(NCc4ccco4)ncnc32)[C@H](O)[C@@H]1O [Kinetin riboside] |  | 30 µM | 10 µM | 3 µM | 3 µM |  | 40 | 3.84 | 25 | 0.246 | 0 |  |
| CC(=O)O[C@@H]1C[C@H]2C(C)(C)C(=O)C=C[C@]2(C)[C@H]2CC[C@]3(C)C(=CC(=O)O[C@H]3c3ccoc3)[C@@]21C [Deoxygedunin] | 1.82 | 30 µM | none | 10 µM | 10 µM |  |  |  |  |  |  | EC50 (Nrf2-ARE pathway; [7]): 1.15 µM; C6 oxidative stress assay Max reduction (C6 astrocyte cell line; [3]): 61%; IC50 (C6 astrocyte cell line; [8]): 2.19 µM; 1321N1 oxidative stress assay Max reduction [1, 3]: 25%; IC50 [1, 4]: 1.41 µM; NSC34 oxidative stress assay Max reduction (NSC34 cells; [5]): 7% |
| CC(=O)OC1CC[C@@]2(C)C(CC[C@H]3[C@@H]4CC=C(C(C)=O)[C@@]4(C)C(=O)C[C@@H]32)C1 (stereo partly shown) [3 Acetoxypregn-16-en-12,20-dione] |  | 30 µM | None | None | None | 2.98 | 50 | 5.34 | 75 | 12.4 | 0 |  |
| Methyl-7-deshydroxypyrogallin-4-carboxylate | 2.83 | 100 µM | none | none | 0.3 µM |  |  |  |  |  |  | EC50 (Nrf2-ARE pathway; [7]): > 100 µM; C6 oxidative stress assay Max reduction (C6 astrocyte cell line; [3]): 70%; IC50 (C6 astrocyte cell line; [8]): 2.95 µM; 1321N1 oxidative stress assay Max reduction [1, 3]: 45%; NSC34 oxidative stress assay Max reduction (NSC34 cells; [5]): -23% |
| 3-α-Hydroxygedinin |  |  |  |  |  |  |  |  |  |  |  | Fold GFP induction (Nrf2-ARE pathway): 3.01 fold; C6 oxidative stress assay Max reduction (C6 astrocyte cell line): 42%; IC50 (C6 astrocyte cell line): 3.22 µM; 1321N1 oxidative stress assay Max reduction [1]: 25%; NSC34 oxidative stress assay Max reduction (NSC34 cells): 14% |
| CC1=C2C(=CO[C@H](C)[C@H]2C)C(O)=C(C(=O)O)C1=O [Citrinin] | 3.26 | 30 µM | none | none | none | 4.1 | 23 | 20 | 28 | 0.338 | 0 |  |
| ClC1=C(Cl)C2(Cl)C3C(Cl)C(Cl)CC3C1(Cl)C2(Cl)Cl (stereo not shown) [Chlordane] | 1.56 | 100 µM | none | none | 3 µM | 9.18 | 20 | 3.57 | 68 |  | 0 |  |
| C=CC(C1=CC(=O)C=CC1=O)c1ccccc1 (stereo not shown) [Dalbergione] |  | 30 µM | None | None | None | 2.47 | 40 | 46 | 38 | 64 | 0 |  |
| CC(=O)O[C@@H]1CC2C(C)(C)C=CC(=O)[C@]2(C)C2CC[C@@]3(C)[C@H](c4ccoc4)OC(=O)C4OC43[C@@]21C (stereo partly shown) [Isogedunin] | 3.11 | None |  | None | 1 µM |  |  |  |  |  |  | EC50 (Nrf2-ARE pathway; [7]): > 100 µM; 1321N1 oxidative stress assay Max reduction [1, 3]: 10%; NSC34 oxidative stress assay Max reduction (NSC34 cells; [5]): 0% |
| CC(C)(C)c1cc(O)ccc1O [tBHQ, tert-butyl hydroquinone, reference compound] |  |  |  |  |  |  |  |  |  |  |  | Cmax (Nrf2-ARE pathway): 10 µM |
